Entries after “also recorded” stand apart in the source; their conditions may differ.
Key:
[1] = test system: HMO6.A1 cells; assay: Fura-2 Ca2+ fluorescence in HMO6.A1 cells; assay type: cell-based, human; conditions: ATP 100 μM; ionomycin 10 μM after ATP perfusion; n=7 cells
Protocol: The cultured HMO6.Al cells were loaded for 25 min with the Ca^2+ indicator fura-2-acetoxymetethylester (fura-2AM). The dye was applied with pleuronic acid (both at concentrations of 1 μM) to normal physiological solution (PSS) at room temperature (20-22° C.). Following a 5 min wash in dye-free solution, the coverslips were placed on the stage of a Zeiss Axiovert inverted microscope containing a ×40 quartz objective lens. Alternating excitation wavelengths (340/380 nm) of UV light were applied at intervals of 8 s and fluorescence signals were obtained at 510 nm of emission light (bandwidth of 4 nm) from 8-20 cells in the field of view. Signals were acquired from a digital camera (DVC-1310, DVC Co., Austin, Tex.) and were processed using an imaging system (Empix, Mississauga, ON) to determine ratios of the 340 nm and 380 nm intensities which have been used as quantitative measures of fluorescence levels in this work.
All studies were done at room temperature (20-22° C.) and values obtained from multiple cells are reported as mean ±SEM with statistical significance for p≦0.05 using the Student's t-test.
The purinergic agonist ATP (at 100 μM) was applied to HMO6.A1 cells using calcium sensitive fluorescence microscopy. The results from a representative experiment are presented by FIGS. 3A and 3B which show an ATP-induced increase in [Ca^2+]i from n=7 cells. […]

[2] = test system: HMO6.A1 cells; assay: RT-PCR analysis of gene expression in agent stimulated HMO6.A1 cells; assay type: cell-based, human; conditions: for P2Y2 receptor expression / B7-2 mRNA expression: HMO6.A1, RT-PCR; for B7-2 mRNA expression: 24 hr incubation; for Stimulated HMO6 cell expressed active substance(s): RT-PCR, agent stimulated HMO6 cells
Excerpt: The information of Table E1 is provided merely as a convenience to the reader and utilizes conventional gene sequences.
Sense and antisense primers of each primer pair given by Table E1 were set at a different exon, respectively, to avoid DNA contamination. To assess the character of HMO6.A1 cells, the expression of cytokines (IL-1β, -2, -3, -4, -5, -6, -7, -8, -9, -10, -11, -12, -13, -15, and TNF-α), chemokines (macrophage inflammatory protein (MIP)-1α, MIP-1β, and monocyte chemoattractant protein (MCP)-1) was examined by RT-PCR. Total RNA was extracted using Trizol reagent (GIBCO-BRL, Gaithersburg, Md.). Complimentary DNA (cDNA) templates from each sample were prepared from 2 μg of total RNA primed with oligo dT primers (Pharmacia, Gaithersburg, Md.) using 400 units of MMLV reverse transcriptase (GIBCO-BRL) followed by 25 PCR amplification cycles (94° C. for 30 seconds, annealing at 60° C. for 60 seconds, and extension at 72° C. for 90 seconds). This cycle number allowed a linear cDNA dose-response. Glyceraldehyde-3-phosphate dehydrogenase (G3PDH) was used as a reaction standard [Ercolani et al., J. Biol. Chem. 263: 15335-15341 ([…])].
To confirm the purity of cell preparation, cDNA from microglia-enriched cultures were amplified for B7-2 (CD86, for microglia); GFAP (a cell type-specific marker for astrocytes); myelin basic protein (MBP, for oligodendrocytes); and neurofilament-M (NF-M, for neurons). For characterization of HMO6.A1 cells, mRNA expression of marker proteins specific for each cell type was also investigated. Gene expression of CD68, P2Y1 purinergic receptor (P2Y1R), P2Y2R, CXCR4 which are expressed in embryonic human microglia (HM) was also examined in HMO6.A1 cells. […] of each PCR product was analyzed by 1.5% agarose gel electrophoresis. Authentic bands were determined by selective enzyme digestion.
[…] LPS at 100 ng/ml was used in microglial cultures since LPS is a potent activator of microglia [Gebicke-Haeter et al., J. Neurosci. 9: 187-194 (1989); Suzumura et al., Brain Res. 545: 301-306 (1991)].

[3] = test system: embryonic human microglia; assay: GM-CSF stimulated proliferation of embryonic human microglia; assay type: cell-based; conditions: GM-CSF 8 μg/ml for 9-12 days
Protocol: It is also desirable that, for the last part of this time, microglia are exposed to granulocyte macrophage colony stimulating factor (GM-CSF) at final concentration of 8 ug/ml for 9-12 days with a medium change every 3 days. GM-CSF treatment stimulated proliferation of microglia results in a 3-4 fold increase in microglial population.
As illustrated by FIG. 1, an amphotropic replication-incompetent retroviral vector encoding v-myc oncogene (transcribed from mouse leukemia virus LTR plus neomycin-resistant gene transcribed from a SV40 early promotor) was used to infect human microglia inducing propagation of immortalized human microglial cell lines. This amphotropic vector, PASK 1.2, was generated using the ecotropic retroviral vector encoding v-myc (obtained from the American Type Culture Collection, Rockville, Md.) to infect PA318 amphotropic packaging cell line. Microglia were exposed to granulocyte macrophage colony stimulating factor (GM-CSF) at final concentration of 8 μg/ml for 9-12 days with medium change every 3 days. GM-CSF treatment stimulated proliferation of microglia resulting in 3-4 folds increase in population. Microglia treated with GM-CSF for 9-12 days were subjected to retrovirally mediated transduction of v-myc by PASK 1.2 construct and subsequent cloning.

[4] = test system: HMO6.A1 cells; assay: ELISA of cytokines/chemokines released from HMO6.A1 cells; assay type: cell-based, human; conditions: for MIP-1α amount of release / levels of IL-8 in the supernatant: HMO6.A1, 48 hours; for levels of IL-8 in the supernatant: versus non-treated controls
Protocol: (§1) Production of TNF-α, IL-1β, IL-6, IL-8 or MIP-1α in normal human microglial cells or HMO6.A1 cells was determined in spent culture supernatants using ELISA kits specific for human TNF-α, IL-1β, IL-6, IL-8 or MIP-1α (R&D Systems, capable of detecting TNF-α at 4.4 pg/ml, IL-1β at 1 pg/ml, IL-6 at 0.70 pg/ml, IL-8 at 10 pg/ml and MIP-1α at 10 pg/ml). At the end of each experiment, culture supernatants were collected, centrifuged, and stored at −70° C.
(§2) FIGS. 6A-6E are graphs presenting ELISA analyses of cytokines and chemokines released from normal human microglia and HMO6 immortalized human microglia cell line. Cells were plated in 6-well plates, stimulated for 48 hours with or without 20 ug/ml β-amyloid or 10 ng/ml LPS, and then cytokine/chemokine production in spent media was measured. Values represent mean±SEM from 3 experiments.

[5] = test system: embryonic human microglia (HM); assay: RT-PCR analysis of gene expression in embryonic human microglia (HM) after Aβ25-35/LPS; assay type: cell-based; conditions: 6 hr
[6] = test system: normal human microglial cells; assay: ELISA of cytokines/chemokines released from normal human microglia (HM); assay type: cell-based; conditions: for IL-6 levels in the culture supernatant: cell type (HM or HMO6.A1) not given; for levels of IL-8 in the supernatant: versus non-treated controls
Protocol: as §1, §2

[7] = HMO6, treatment time not stated

Nc1ncnc2c1ncn2[C@@H]1O[C@H](COP(=O)(O)OP(=O)(O)OP(=O)(O)O)[C@@H](O)[C@H]1O [ATP]
[Ca2+]i response [1]: increase; also recorded: rapid and transient

C[C@H](CCC(=O)O)C[C@H](C)C[C@H](C)C(=O)/C=C(\O)[C@H](C)C[C@H](C)C/C=C/[C@@H](C)[C@@H](O)[C@@H](C)[C@@H](O)C[C@@H]1CC[C@@](C)([C@H]2CC[C@@](C)([C@@H](C)O)O2)O1 [ionomycin]
[Ca2+]i response [1]: considerably larger than the ATP-induced response

GM-CSF: granulocyte-macrophage colony-stimulating factor (GIBCO-BRL)
P2Y2 receptor expression [2]: expressed
B7-2 mRNA expression [2]: not
increase in microglial population [3]: 3-4 fold

IL-1β: Recombinant human IL-1β (10 ng/ml, R&D Systems)
P2Y2 receptor expression [2]: expressed
B7-2 mRNA expression [2]: not
Stimulated HMO6 cell expressed active substance(s) [2]: None

NH2-GSNKGAIIGLM-COOH (H-GSNKGAIIGLM-OH) [Aβ25-35]
MIP-1α amount of release [4]: very low
TNF-α production (ELISA) ([4]; HMO6.A1, 48 hours stimulation, spent media): marked increase
levels of IL-8 in the supernatant [4]: greater
CXCR4 expression ([2]; HMO6.A1, 6 hr): increased
IL-1β expression ([2]; HMO6.A1, 6 hr): no change
IL-6 expression ([2]; HMO6.A1, 6 hr): no change
IL-8 mRNA expression ([2]; HMO6.A1, 6 hr): elevated
IL-10 expression ([2]; HMO6.A1, 6 hr): not detected
IL-12 expression ([2]; HMO6.A1, 6 hr): elevated
MCP mRNA expression ([2]; HMO6.A1, 6 hr): elevated
MIP-1α mRNA expression ([2]; HMO6.A1, 6 hr): not expressed
MIP-1β expression ([2]; HMO6.A1, 6 hr): No change
TNF-α expression ([2]; HMO6.A1, 6 hr incubation): not induced
TNF-α expression ([2]; HMO6.A1, after 24 hr): induced
TNF-α expression ([2]; HMO6.A1, after 24 hr, listed as Aβ): detected; also recorded: induced
Stimulated HMO6 cell expressed active substance(s) ([2]; Elevated IL-12 expression): Elevated IL-12
Stimulated HMO6 cell expressed active substance(s) ([2]; TNF-α expression): TNF-α
IL-1β expression [5]: slightly increased
IL-4 expression [5]: not recognized
IL-8 mRNA [5]: up-regulated
IL-10 expression [5]: increased
IL-12 expression [5]: elevated
IL-13 expression [5]: not recognized
MCP mRNA [5]: up-regulated
MIP-1α mRNA [5]: up-regulated
MIP-1β mRNA [5]: up-regulated
TNF-α expression [5]: markedly elevated
IL-6 levels in the culture supernatant ([6]; 48 hours stimulation): not increased
MIP-1α levels ([6]; HM, 48 hours): elevated
release of IL-1β into culture medium ([6]; HM, 48 hours stimulation): demonstrated
TNF-α production (ELISA) ([6]; HM, 48 hours stimulation, spent media): marked increase
levels of IL-8 in the supernatant ([6]; HM, 48 hours): greater

TNF-α
Expression of MIP-1α [2, 7]: newly induced
Expression of TNF-α [2, 7]: newly induced
MIP-1α expression ([2]; HMO6.A1, 24 hr treatment): detected; also recorded: induced
P2Y2 receptor expression [2]: induced; also recorded: expressed
B7-2 mRNA expression [2]: induced; also recorded: expressed
TNF-α gene expression ([2]; HMO6.A1, treatment for 4 hr): recognized; also recorded: induced
Stimulated HMO6 cell expressed active substance(s) ([2]; MIP-1α expression): MIP-1α
Stimulated HMO6 cell expressed active substance(s) ([2]; TNF-α expression): TNF-α

lipopolysaccharide [LPS]
MIP-1α amount of release [4]: very low
levels of IL-8 in the supernatant [4]: greater
CXCR4 expression ([2]; HMO6.A1, 6 hr): increased
TNF-α expression ([2]; HMO6.A1, 6 hr incubation): not induced
P2Y2 receptor expression [2]: expressed
B7-2 mRNA expression [2]: not
TNF-α expression ([2]; HMO6.A1, after 24 hr): induced
IL-6 levels in the culture supernatant ([6]; 48 hours stimulation): increased
release of IL-1β into culture medium ([6]; HM, 48 hours stimulation): demonstrated
levels of IL-8 in the supernatant ([6]; HM, 48 hours): greater

B1: IFN-γ: recombinant human IFN-γ (500 IU/ml, LG Chem) (protein, UniProt P01579 24-161, looked up)
Interferon gamma: QDPYVKEAENLKKYFNAGHSDVADNGTLFLGILKNWKEESDRKIMQSQIVSFYFKLFKNFKDDQSIQKSVETIKEDMNVKFFNSNKKKRDDFEKLTNYSVTDLNVQRKAIHELIQVMAELSPAAKTGKRKRSQMLFRG
P2Y2 receptor expression [2]: expressed
B7-2 mRNA expression [2]: not

Reference: US6780641B2, “Immortalized human microglia cell line” (University of British Columbia, priority 2000, dated 2004)
